The record followed here is the NIST ThermoML archive (doi:10.1021/je400493x).

The conditions of data set [1]: 298.15 K; 100 kPa; Liquid.
Data set [2] in a line: xn = mol fraction of the nth substance listed. The conditions noted are these: 298.15 K, 100 kPa, Liquid.
The conditions of data set [3]: 298.15 K, Liquid mixture 1, Drop volume.

± gives the expanded uncertainty stated by the source.

A word on the mass density: it is mass per unit of volume. Usually viscosity stands for the internal friction of a fluid under shear. Take `CCCCCCCCCCCC` [dodecane]: in data set [1], the mass density worked out at 745.29 ± 4.2 kg/m3 and the viscosity amounted to 1.347 ± 0.033 mPa·s.

Take `CCCCCCCCCCCC` [dodecane] + CC(C)CCOP(=O)(OCCC(C)C)OCCC(C)C: in data set [2] (x2 = 0), the mass density came to 745.29 ± 4.2 kg/m3 and the viscosity is recorded as 1.347 ± 0.033 mPa·s.

`CCCCCCCCCCCC` [dodecane] + O: the interfacial tension in data set [3] (100 kPa) came to 52.6 ± 0.8 mN/m.

In the case of `CC(C)CCOP(=O)(OCCC(C)C)OCCC(C)C` [triisopentyl phosphate], in data set [1], the mass density was 946.95 ± 1.8 kg/m3 and the viscosity is 4.267 ± 0.076 mPa·s.

Take `CC(C)CCOP(=O)(OCCC(C)C)OCCC(C)C` [triisopentyl phosphate] + CCCCCCCCCCCC: the mass density in data set [2] (x1 = 0.0999) was 765.49 ± 4 kg/m3; in data set [2] (x1 = 0.1998), 785.78 ± 3.7 kg/m3; in data set [2] (x1 = 0.3001) it was 805.91 ± 3.5 kg/m3; in data set [2] (x1 = 0.4002), 826.05 ± 3.2 kg/m3; in data set [2] (x1 = 0.5001), 846.25 ± 3 kg/m3; in data set [2] (x1 = 0.5999), 866.75 ± 2.7 kg/m3. Besides, the mass density in data set [2] (x1 = 0.7002) is on record as 888.26 ± 2.5 kg/m3; in data set [2] (x1 = 0.7998), 909.12 ± 2.2 kg/m3; in data set [2] (x1 = 0.9001), 929.41 ± 2 kg/m3; in data set [2] (x1 = 1) it was 946.95 ± 1.8 kg/m3. The viscosity in data set [2] (x1 = 0.0999) came out at 1.488 ± 0.035 mPa·s; in data set [2] (x1 = 0.1998) it was 1.678 ± 0.037 mPa·s; in data set [2] (x1 = 0.3001), 1.896 ± 0.04 mPa·s; in data set [2] (x1 = 0.4002), 2.119 ± 0.043 mPa·s; in data set [2] (x1 = 0.5001), 2.391 ± 0.047 mPa·s; in data set [2] (x1 = 0.5999) it was 2.674 ± 0.051 mPa·s. Besides, the viscosity in data set [2] (x1 = 0.7002) came out at 3.015 ± 0.056 mPa·s; in data set [2] (x1 = 0.7998), 3.375 ± 0.062 mPa·s; in data set [2] (x1 = 0.9001), 3.804 ± 0.068 mPa·s; in data set [2] (x1 = 1), 4.267 ± 0.076 mPa·s.

For `CC(C)CCOP(=O)(OCCC(C)C)OCCC(C)C` [triisopentyl phosphate] + O, the interfacial tension in data set [3] (101 kPa) turned out to be 14.4 ± 0.8 mN/m.
